Columns and labels:
Assay type in all cases: in vivo
Conditions in all cases: 50 ppm, 100 = 100% disease control, 0 = no control
Phakopsora pachyrhizi = assay: Test D: Asian soybean rust, preventive spray on soybean seedlings
Summary of the method: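 Compounds in acetone/water (50/50) with 250 ppm PEG400, dosed in ppm, sprayed to run-off on soybean seedlings; inoculated with P. pachyrhizi spores next day. Held 24 h at 22 °C in saturated air, then 8 days at 22 °C; visual rating of disease control, 0–100, relative to untreated controls.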

Alternaria solani = assay: Test F: tomato early blight, preventive spray on tomato seedlings
Summary of the method: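 Preventive test: one day after the compound spray, seedlings were inoculated with A. solani, incubated saturated at 27 °C for 48 h, then kept at 20 °C for 3 days. Test suspensions contained acetone/water 50/50 with 250 ppm PEG400 surfactant. Visual ratings run from 0 (no control) to 100 (full control).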

[1] = tested on: Blumeria graminis f. sp. tritici; assay: Test C: wheat powdery mildew, preventive spray on wheat seedlings
Summary of the method: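 Preventive test: inoculation with spore dust came one day after spraying seedlings to run-off with ppm suspensions in acetone/water (50/50) plus 250 ppm PEG400 surfactant. Visual ratings after 8 days' incubation at 20° C give percent disease control relative to controls.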

Botrytis cinerea = assay: Test E: tomato Botrytis, preventive spray on tomato seedlings
Summary of the method: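 Preventive test: seedlings sprayed to run-off with compound in acetone/water (50/50) plus 250 ppm PEG400, inoculated one day later with B. cinerea spores. Held 48 h saturated at 20° C, then 3 days at 24° C; disease control scored visually from 0 to 100 versus controls.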

Septoria tritici = assay: Test A: wheat leaf blotch, preventive spray on wheat seedlings
Summary of the method: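 Preventive test: one day after spraying seedlings to run-off (concentrations in ppm; acetone/water, 250 ppm PEG400), Septoria tritici spores applied. Scored after 48 h humid incubation at 24 °C plus 17 days at 20 °C, as percent disease control versus untreated controls (100 = full control).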

[2] = tested on: Puccinia recondita f. sp. tritici; assay: Test B: wheat leaf rust, preventive spray on wheat seedlings
Summary of the method: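 Preventive test: compound in acetone/water 50/50 with 250 ppm PEG400 was sprayed onto wheat seedlings one day before inoculation with leaf rust spores. After 24 h in saturated air and 7 days in a growth chamber, both at 20 °C, disease control was scored from 0 to 100 against controls.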

## Cc1nn(C)c(Nc2c(F)cc(F)cc2[N+](=O)[O-])c1-c1ccc(C#N)cc1Cl [compound 120]
Phakopsora pachyrhizi
  Test D disease control rating: 44%
Alternaria solani
  Test F disease control rating: 99%
[1]
  Test C disease control rating: 89%
Botrytis cinerea
  Test E disease control rating: 100%
Septoria tritici
  Test A disease control rating: 100%
[2]
  Test B disease control rating: 100%

## Cn1nc(C#N)c(-c2ccc(F)cc2Cl)c1Nc1c(F)cccc1[N+](=O)[O-] [compound 122]
Phakopsora pachyrhizi
  Test D disease control rating: 0%
Alternaria solani
  Test F disease control rating: 99%
[1]
  Test C disease control rating: 94%
Botrytis cinerea
  Test E disease control rating: 100%
Septoria tritici
  Test A disease control rating: 100%
[2]
  Test B disease control rating: 100%

## Cc1nn(C)c(Nc2c(Cl)cccc2[N+](=O)[O-])c1-c1ccc(C#N)cc1Cl [compound 123]
Phakopsora pachyrhizi
  Test D disease control rating: 0%
Alternaria solani
  Test F disease control rating: 66%
[1]
  Test C disease control rating: 81%
Botrytis cinerea
  Test E disease control rating: 100%
Septoria tritici
  Test A disease control rating: 100%
[2]
  Test B disease control rating: 97%

## COc1ccc(Nc2c(-c3ccc(C#N)cc3Cl)c(C)nn2C)c([N+](=O)[O-])c1 [compound 124]
Phakopsora pachyrhizi
  Test D disease control rating: 25%
Alternaria solani
  Test F disease control rating: 99%
[1]
  Test C disease control rating: 99%
Botrytis cinerea
  Test E disease control rating: 100%
Septoria tritici
  Test A disease control rating: 100%
[2]
  Test B disease control rating: 100%

## Cc1nn(C)c(Nc2c(Br)cccc2[N+](=O)[O-])c1-c1ccc(C#N)cc1Cl [compound 125]
Phakopsora pachyrhizi
  Test D disease control rating: 0%
Alternaria solani
  Test F disease control rating: 9%
[1]
  Test C disease control rating: 0%
Botrytis cinerea
  Test E disease control rating: 99%
Septoria tritici
  Test A disease control rating: 100%
[2]
  Test B disease control rating: 96%

## Cc1nn(C)c(Nc2ccccc2[N+](=O)[O-])c1-c1ccc(F)cc1Cl [compound 126]
Phakopsora pachyrhizi
  Test D disease control rating: 0%
Alternaria solani
  Test F disease control rating: 68%
[1]
  Test C disease control rating: 96%
Botrytis cinerea
  Test E disease control rating: 100%
Septoria tritici
  Test A disease control rating: 98%
[2]
  Test B disease control rating: 85%

## CCc1nn(C)c(Nc2c(Cl)cc(Br)cc2[N+](=O)[O-])c1-c1ccc(F)cc1Cl [compound 128]
Phakopsora pachyrhizi
  Test D disease control rating: 31%
Alternaria solani
  Test F disease control rating: 33%
[1]
  Test C disease control rating: 96%
Botrytis cinerea
  Test E disease control rating: 99%
Septoria tritici
  Test A disease control rating: 100%
[2]
  Test B disease control rating: 98%

## Cc1nn(C)c(Nc2cc(Cl)ccc2[N+](=O)[O-])c1-c1ccc(F)cc1Cl [compound 130]
Phakopsora pachyrhizi
  Test D disease control rating: 0%
Alternaria solani
  Test F disease control rating: 0%
[1]
  Test C disease control rating: 20%
Botrytis cinerea
  Test E disease control rating: 85%
Septoria tritici
  Test A disease control rating: 85%
[2]
  Test B disease control rating: 86%

## Cc1nn(C)c(Nc2c(F)cc(Cl)cc2[N+](=O)[O-])c1-c1ccc(F)cc1Br [compound 131]
Phakopsora pachyrhizi
  Test D disease control rating: 80%
Alternaria solani
  Test F disease control rating: 100%
[1]
  Test C disease control rating: 99%
Botrytis cinerea
  Test E disease control rating: 99%
Septoria tritici
  Test A disease control rating: 100%
[2]
  Test B disease control rating: 100%

## Cc1nn(C)c(Nc2c(F)cc(Br)cc2[N+](=O)[O-])c1-c1ccc(Cl)cc1Cl [compound 132]
Phakopsora pachyrhizi
  Test D disease control rating: 0%
Alternaria solani
  Test F disease control rating: 96%
[1]
  Test C disease control rating: 47%
Botrytis cinerea
  Test E disease control rating: 99%
Septoria tritici
  Test A disease control rating: 100%
[2]
  Test B disease control rating: 98%

## Cc1nn(C)c(Nc2c(Cl)cccc2[N+](=O)[O-])c1-c1ccc(Cl)cc1Cl [compound 133]
Phakopsora pachyrhizi
  Test D disease control rating: 0%
Alternaria solani
  Test F disease control rating: 0%
[1]
  Test C disease control rating: 0%
Botrytis cinerea
  Test E disease control rating: 97%
Septoria tritici
  Test A disease control rating: 100%
[2]
  Test B disease control rating: 86%

## Cc1nn(C)c(Nc2ccccc2[N+](=O)[O-])c1-c1ccc(C#N)cc1F [compound 134]
Phakopsora pachyrhizi
  Test D disease control rating: 0%
Alternaria solani
  Test F disease control rating: 0%
[1]
  Test C disease control rating: 71%
Botrytis cinerea
  Test E disease control rating: 70%
Septoria tritici
  Test A disease control rating: 100%
[2]
  Test B disease control rating: 23%

From patent publication US20230148599A1, “FUNGICIDAL MIXTURES CONTAINING PYRAZOLE DERIVATIVES” (FMC Corporation, priority 2020, published 2023)
